# Patent US11793824B2, “Administration of nicotinamide mononucleotide in the treatment of disease” (Washington University, priority 2013, dated 2023)
# Experiments:
# [1] = cited from earlier work
# NestinGFP+ cells = test: Cuprizone model of demyelination and remyelination, fate of NestinGFP+ cells; type: in vivo, mouse
# Procedure: Demyelination was induced by feeding 6 to 8-week-old mice a diet containing 0.2% cuprizone (bis-cyclohexanone oxaldihydrazone; Sigma C9012) mixed into a ground standard rodent chow for 4 to 5 weeks (Harlan Laboratories, TD.01453). To allow recovery from cuprizone treatment, food was replaced with standard chow for an additional 1 week.
# All tissue sections were and cells incubated in blocking/permeabilization solution containing 10% normal goat serum, 1% BSA, and 0.3% Triton-X in PBS for 45 to 60 min prior to 24 or 48 h of incubation with primary antibodies in 5% normal goat serum and 0.1% Triton-X in PBS at 4° C. at the concentrations listed below. […], Alexa488, or Cy3 conjugated-secondary antibodies diluted in 2% normal goat serum, 1% BSA, and 0.1% Triton-X in PBS were added for 2 h at room temperature. Nuclei were stained with 4,6-diamidino-2-phenylindole (Sigma) for 10 min at room temperature.
# For tissue sections, high-magnification (20×, 0.8DICII or 40× oil 1.3DICII) microscopic imaging was performed using a Zeiss Axioimage.Z1. Images were taken in z-stacks of 1 μm steps through the range of tissue section immunoreactivity. For the dorsolateral corner of the SVZ, images were taken from bregma 1.10 to −0.10 mm. For the corpus callosum, images were taken from bregma −1.06 to −2.54 mm. For the dentate gyrus, images were taken from bregma −1.34 to −3.64 mm. Quantification was performed blinded to genotype on 3-8 tissue sections per animal. Cell densities were estimated by the number of immunoreactive cells divided by the area of the structure, measured with ImageJ. Verification of colocalization was achieved by importing stacks of Z images into ImageJ and performing 3D rendering. For cells, 10 or 20× microscopic imaging was performed using a Zeiss Axioimage.Z1. Quantification was performed blinded to genotype on 2 to 3 fields of view per sample and treatment, from 3 to 9 independent samples.
# The inventors employed the cuprizone model of demyelination and remyelination. Specifically, the inventors fed 6- to 9-week-old iNSPC-Nampt-KO and littermate control mice (iNSPC-GFP) a diet containing 0.2% cuprizone for 4-5 weeks, inducing deletion of Nampt in the adult Nestin+ population the week before starting the cuprizone diet (FIG. 20B) (Skripuletz et al, 2011). To ensure that analysis of progeny of adult Nestin+ cells, all mice in our cohort expressed Cre recombinase under the inducible Nestin promoter (Nestin-CreERT2) (Lagace et al, 2007) and the aforementioned Cre recombinase responsive GFP reporter transgene. The analysis focus was on lineage tracer marked (NestinGFP+) cells.
# Sirt1 = target: T1, Sirt1 (Mus musculus, UniProt Q923E4); test: Oligodendrocyte formation from dissociated neurospheres with Sirt1 inhibitor; type: cell-based; conditions: EX527 80 μM, 6-7 days of differentiation
# T1 construct: endogenous in cells; host or cells: dissociated primary neurospheres (NSPCs) from postnatal mouse hippocampi, differentiated for 6-7 days
# T1 sequence (Q923E4 1-737): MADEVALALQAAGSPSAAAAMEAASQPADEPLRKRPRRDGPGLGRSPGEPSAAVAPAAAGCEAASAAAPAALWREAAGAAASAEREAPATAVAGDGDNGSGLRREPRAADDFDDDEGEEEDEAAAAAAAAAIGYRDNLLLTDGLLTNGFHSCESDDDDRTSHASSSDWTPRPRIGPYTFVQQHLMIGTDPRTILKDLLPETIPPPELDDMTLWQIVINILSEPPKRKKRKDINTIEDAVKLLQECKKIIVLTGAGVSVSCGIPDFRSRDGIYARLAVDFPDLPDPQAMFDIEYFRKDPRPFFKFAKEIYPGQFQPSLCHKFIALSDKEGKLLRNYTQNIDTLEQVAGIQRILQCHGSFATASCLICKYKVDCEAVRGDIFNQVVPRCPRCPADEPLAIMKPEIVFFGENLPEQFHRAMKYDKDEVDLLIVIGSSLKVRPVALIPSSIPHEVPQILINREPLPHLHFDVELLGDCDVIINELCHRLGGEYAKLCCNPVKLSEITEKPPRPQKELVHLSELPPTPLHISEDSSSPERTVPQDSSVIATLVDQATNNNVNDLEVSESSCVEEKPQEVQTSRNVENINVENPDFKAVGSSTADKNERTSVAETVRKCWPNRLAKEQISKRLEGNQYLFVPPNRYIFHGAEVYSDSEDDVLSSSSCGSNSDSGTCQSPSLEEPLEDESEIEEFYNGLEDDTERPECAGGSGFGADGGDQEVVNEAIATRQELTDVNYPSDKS
# Description: Data are presented as mean±s.e.m. *P<0.05. **P<0.01. ***P<0.001.
# Sirt2 = target: T2, Sirt2 (Mus musculus, UniProt Q8VDQ8); test: Oligodendrocyte formation from dissociated neurospheres with Sirt2 inhibitor; type: cell-based; conditions: AGK2 10 μM, 6-7 days of differentiation
# T2 construct: endogenous in cells; host or cells: dissociated primary neurospheres (NSPCs) from postnatal mouse hippocampi, differentiated for 6-7 days
# T2 sequence (Q8VDQ8 1-389): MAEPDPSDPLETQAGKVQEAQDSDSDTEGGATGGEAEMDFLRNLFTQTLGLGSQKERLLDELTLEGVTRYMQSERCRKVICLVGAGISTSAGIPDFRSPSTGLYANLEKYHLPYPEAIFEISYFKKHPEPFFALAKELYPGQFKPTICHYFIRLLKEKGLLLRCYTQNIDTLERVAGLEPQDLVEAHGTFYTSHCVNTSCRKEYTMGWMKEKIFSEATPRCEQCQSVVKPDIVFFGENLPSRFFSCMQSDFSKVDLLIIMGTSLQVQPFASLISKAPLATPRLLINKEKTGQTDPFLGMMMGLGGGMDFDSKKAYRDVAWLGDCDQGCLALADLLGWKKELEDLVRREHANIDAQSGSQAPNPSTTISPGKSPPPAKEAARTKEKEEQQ
# Procedure: FK866 (Hasmann & Schemainda, 2003) (Sigma F8557), EX527 (Peck et al, 2010) (Cayman Chemical 10009798), and AGK2 (Outeiro et al, 2007) (Sigma A8231) were dissolved in DMSO and used to inhibit Nampt, Sirt1, and Sirt2 respectively.
# Three to five days after their first passage, neurospheres were trypsinized, washed with dissociation medium, and plated at 150,000 cells per well in 24-well plates in differentiation medium [growth medium without FGF and EGF and with BDNF (5 ng/mL, Peprotech, 450-02) on glass coverslips coated with poly-D-lysine (50 ug/mL; Sigma) and laminin (20 ug/mL; BD Biosciences)]. 6-well plates were coated with poly-D-lysine (20 ug/mL) and laminin (10 ug/mL). To enrich for oligodendrocytes, PDGFαα (10 ng/ml, Peprotech 100-13A) was added to neurospheres at passage 2 and PDGFαα (2.5 ng/ml) and 3,3-,5-triiodo-L-thyronine (T3, 40 ng/ml, Sigma T4397) were added to differentiation medium. The percentage of oligodendrocyte precursor cells (OPCs) generated was analyzed after 2 d of differentiation, and the percentage of differentiated oligodendrocytes was analyzed after 6-7 d of differentiation.
# The inventors acutely treated NSPCs with the selective inhibitor of Sirt2, AGK2, or the Sirt1 inhibitor, EX527. […] The inventors generated Sirt1/Sirt2-double knockout (Sirt1/2 DKO) neurospheres. […]
# [2] = CC of control mice, cuprizone feeding
# [3] = iNSPC-GFP CC, cuprizone feeding
structure (smiles),measurement,setting,value
O=C(O)c1cccnc1 [nicotinic acid],skeletal muscle insulin resistance,[1]; chronic administration,can cause skeletal muscle insulin resistance
same,blood FFA levels,[1]; chronic treatment,tends to increase blood FFA levels
same,total cholesterol and triglyceride levels,[1]; chronic treatment,lowers total cholesterol and triglyceride levels
"O=C(NN=C1CCCCC1)C(=O)NN=C1CCCCC1 [cuprizone, bis-cyclohexanone oxaldihydrazone]",total number of NestinGFP+ cells in the iNSPC-GFP DG,NestinGFP+ cells; 0.2% cuprizone diet 4-5 weeks,did not alter
same,NestinGFP+Apc+ double positive cells,NestinGFP+ cells; [2],4%
same,NestinGFP+Sox10+ double positive cells,NestinGFP+ cells; [2],16%
same,percentage of NestinGFP+ cells co-localized with Gfap+,"NestinGFP+ cells; SGZ, cuprizone fed",41%
same,percentage of NestinGFP+ cells co-localized with Nestin+,"NestinGFP+ cells; SGZ, cuprizone fed",35%
same,NestinGFP+Gfap+ double positive cells,NestinGFP+ cells; [3],24%
same,percentage of NestinGFP+Nestin+ cells,NestinGFP+ cells; [3],41%
NC(=O)C1CCCc2c1[nH]c1ccc(Cl)cc21 (stereo not drawn) [EX527],oligodendrocyte formation (O4+),Sirt1,acutely suppressed oligodendrocyte formation
N#C/C(=C\c1ccc(-c2cc(Cl)ccc2Cl)o1)C(=O)Nc1cccc2ncccc12 [AGK2],oligodendrocyte formation (O4+),Sirt2,acutely suppressed oligodendrocyte formation
